Test system: A172 cells
Experiment: Flow cytometry annexin V/PI staining, cell death pathway, A172
Assay type: cell-based, human
Details: A172, at IC50, 6, 18 and 24 h
Protocol: To confirm the cell death pathway, another approach to flow cytometry was used. […] Annexin V is a specific PS-binding protein, and thus it is used to detect apoptotic cells. Very few events could be observed in the first and the second quadrant, which represent apoptotic cells. Most events occurred in the third and the fourth quadrant, where unstained and necrotic cells were located. The 24 h measurements after both flow cytometry approaches were consistent with each other. […] Two approaches for flow cytometry were used—FDA/PI staining to determine cell viability and annexin V/PI staining for cell death pathway determination. For cell death pathway determination, cells were plated in 6-well plates at a density of 3 × 10^5 cells/well. […] After 6, 18, and 24 h incubation, adhered and floating cells were harvested, centrifuged at 1600 rpm, and washed with PBS. Next, the cells were washed with 1× annexin-binding buffer, and after centrifugation, cells from each test set were suspended in 100 µL of 1× annexin-binding buffer. To each tube, 5 µL of Alexa Fluor 488-annexin V stain was added, and the cells were incubated in the dark. After 15 min incubation, the cells were centrifuged at 1600 rpm to remove the dye, then suspended in 1 mL of 1× binding buffer and kept on ice. Prior to analysis, cells were stained for 2 min with 1 µM PI. […]

## Cc1nc(-c2ccccc2)nc(Nc2ccc(F)cc2)c1C=Nc1cccc(Cl)c1 [compound 4b, 5-{[(3-chlorophenyl)imino]methyl}-N-(4-fluorophenyl)-6-methyl-2-phenylpyrimidin-4-amine]
  cell death pathway: irreversible cell injury and necrosis

Source: PMC10889512, “Pyrimidine Schiff Bases: Synthesis, Structural Characterization and Recent Studies on Biological Activities” (International Journal of Molecular Sciences, 2024)
